Where two headings read alike, the source gives them in different places.
How the values were obtained:
[1] = target: T1, BRAFV600E full-length (amino acids 2-766) (Homo sapiens, UniProt P15056, V600E); assay: B-Raf Accelerated MEK ATPase assay (BRAMA); type: biochemical; conditions: categorized
T1 construct: His6-tagged BRAFV600E full-length (amino acids 2-766); His6; made in house; host or cells: baculovirus expression system (insect cells)
In short: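 Coupled-enzyme readout: ADP generated by MEK-mediated ATP hydrolysis, uncoupled from ERK phosphorylation, is linked to NADH oxidation through pyruvate kinase and lactate dehydrogenase.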

[2] = test system: Human colon tumor cells (Colo205); assay: Cell growth inhibition assay (CellTiter-Glo), Colo205; type: cell-based
Method: Human colon tumor cells (Colo205) were cultured in RPMI (Mediatech 50-020-PB) containing 10% FBS and 1% penicillin-streptomycin.
The next day, compounds were diluted as follow: For 96-well assays, 13.5 μL of compound in DMSO were diluted using nine (9) serial 1:3 dilutions of 4.5 μL in 9 μL of DMSO. Medium (270 μL/well of RPMI with 10% FBS and 1% penicillin-streptomycin) was added to the plates. Aliquots (7 μL) were added to cells in the final assay giving a final DMSO concentration of 0.2%. For 384-well assays, 15 μL of compound in DMSO were diluted using nine (9) serial 1:3 dilutions of 5 μL in 10 μL of DMSO, followed by a further dilution of 5 μL of compound with 95 μL of medium, of which 2 μL were added to cells in the final assay giving a final DMSO concentration of 0.2%. Cells were incubated at 37° C., 5% CO2 for 3 days.
Total ATP was measured (as a surrogate estimate of cell number) using CellTiter-Glo® reagent (Promega G7571). Briefly, plates were removed from the incubator and allowed to equilibrate to room temperature for 30 minutes. CellTiter-Glo® (25 μL or 55 μL for 384-well or 96-well assays, respectively) reagent was added to each well and plates were shaken on an orbital plate shaker for 2 minutes. Plates were incubated without shaking for a further 30 minutes and read on an LJL Analyst GT reader in luminometer mode with an integration time of 0.5 seconds per well. Percent inhibition of cell growth was calculated relative to DMSO vehicle-treated control wells.

[3] = test system: Human melanoma cancer cells (SK-MEL-28); assay: Cell growth inhibition assay (CellTiter-Glo), SK-MEL-28; type: cell-based
[4] = B-Raf Activity, Table 1a, highest pIC50 for the one or more runs
[5] = B-Raf pIC50, Table 1b, later runs, average pIC50 for the one or more runs
[6] = COLO 205, 72 h, Table 2a, 3 days incubation, read-out: Activity in Colo205 Tumor Cells
[7] = COLO 205, Table 2b, later runs, average for the one or more runs, categorized, read-out: IC50 for Colo205
[8] = SK-MEL-28, 72 h, Table 3a, 3 days incubation, read-out: Activity in SK-MEL-28 Tumor Cells
[9] = SK-MEL-28, Table 3b, later runs, average for the one or more runs, categorized, read-out: IC50 for SK-MEL-28
[10] = Table 1b, later runs, average pIC50 for the one or more runs, read-out: B-Raf pIC50 (converted)

T1 sequence (P15056 2-766 V600E): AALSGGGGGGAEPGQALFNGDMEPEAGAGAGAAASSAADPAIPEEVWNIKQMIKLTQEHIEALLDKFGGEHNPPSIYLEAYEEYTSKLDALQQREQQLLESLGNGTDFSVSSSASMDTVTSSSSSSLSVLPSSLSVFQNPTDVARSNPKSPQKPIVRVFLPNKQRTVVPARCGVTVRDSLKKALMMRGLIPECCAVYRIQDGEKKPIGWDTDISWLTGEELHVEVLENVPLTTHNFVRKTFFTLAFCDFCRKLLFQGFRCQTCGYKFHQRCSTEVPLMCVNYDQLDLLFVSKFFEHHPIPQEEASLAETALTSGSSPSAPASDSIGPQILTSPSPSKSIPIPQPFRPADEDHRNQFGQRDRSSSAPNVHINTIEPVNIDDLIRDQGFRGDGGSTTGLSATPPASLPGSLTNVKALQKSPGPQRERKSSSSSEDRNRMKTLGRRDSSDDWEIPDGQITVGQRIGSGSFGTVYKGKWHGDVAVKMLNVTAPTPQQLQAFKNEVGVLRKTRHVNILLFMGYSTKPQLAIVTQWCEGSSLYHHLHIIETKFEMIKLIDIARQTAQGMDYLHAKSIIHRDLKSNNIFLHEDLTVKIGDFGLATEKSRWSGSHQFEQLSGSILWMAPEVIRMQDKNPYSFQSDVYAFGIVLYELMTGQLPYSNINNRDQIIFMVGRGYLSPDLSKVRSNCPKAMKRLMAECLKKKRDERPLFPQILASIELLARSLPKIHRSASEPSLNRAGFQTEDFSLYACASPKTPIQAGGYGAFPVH

`CS(=O)(=O)CCNc1nccc(-c2sc(N3CCOCC3)nc2-c2cccc(NS(=O)(=O)c3c(F)cccc3F)c2F)n1` [Example 14, 2,6-Difluoro-N-{2-fluoro-3-[5-(2-{[2-(methylsulfonyl)ethyl]amino}-4-pyrimidinyl)-2-(4-morpholinyl)-1,3-thiazol-4-yl]phenyl}benzenesulfonamide] showed an IC50 [1, 4] of under 100 nM, an IC50 [1, 5] of at most 3.16 nM and an IC50 [2, 6] of under 100 nM. It also gave an IC50 [2, 7] of under 100 nM, an IC50 [3, 8] of under 100 nM and an IC50 [3, 9] of under 100 nM.
Work on `CS(=O)(=O)CCCNc1nccc(-c2sc(N3CCOCC3)nc2-c2cccc(NS(=O)(=O)c3c(F)cccc3F)c2F)n1` [Example 15, 2,6-Difluoro-N-{2-fluoro-3-[5-(2-{[3-(methylsulfonyl)propyl]amino}-4-pyrimidinyl)-2-(4-morpholinyl)-1,3-thiazol-4-yl]phenyl}benzenesulfonamide] yielded an IC50 [1, 4] of under 100 nM, an IC50 [1, 5] of at most 3.16 nM and an IC50 [2, 6] of under 100 nM. The IC50 [2, 7] was under 100 nM, the IC50 [3, 8] was under 100 nM and the IC50 [3, 9] was under 100 nM.
`CC(C)(C)c1nc(-c2ccc(F)c(NS(=O)(=O)c3c(F)cccc3F)c2)c(-c2ccnc(N[C@H]3CC[C@H](NS(C)(=O)=O)CC3)n2)s1` [Example 16, N-(5-{2-(1,1-Dimethylethyl)-5-[2-({trans-4 [(methylsulfonyl)amino]cyclohexyl}amino)-4-pyrimidinyl]-1,3-thiazol-4-yl}-2-fluorophenyl)-2,6-difluorobenzenesulfonamide] showed an IC50 [1, 4] of under 100 nM, an IC50 [1, 10] of 3.16 to 31.6 nM and an IC50 [2, 6] of under 100 nM. For the same compound, the IC50 [2, 7] was under 100 nM, the IC50 [3, 8] was under 100 nM and the IC50 [3, 9] was under 100 nM.
In the case of `CS(=O)(=O)N[C@H]1CC[C@H](Nc2nccc(-c3sc(N4CCCC4)nc3-c3cccc(NS(=O)(=O)c4c(F)cccc4F)c3)n2)CC1` [Example 17, 2,6-Difluoro-N-{3-[5-[2-({trans-4-[(methylsulfonyl)amino]cyclohexyl}amino)-4-pyrimidinyl]-2-(1-pyrrolidinyl)-1,3-thiazol-4-yl]phenyl}benzenesulfonamide], the IC50 [1, 4] is reported as under 100 nM, the IC50 [1, 10] is reported as 3.16 to 31.6 nM and the IC50 [2, 6] is reported as under 100 nM. The IC50 [2, 7] was under 100 nM, the IC50 [3, 8] was under 100 nM and the IC50 [3, 9] was under 100 nM.
Compound `CC(C)CNc1nccc(-c2sc(C3CCOCC3)nc2-c2cccc(NS(=O)(=O)c3c(F)cccc3F)c2Cl)n1` [Example 18, N-{2-Chloro-3-[5-{2-[(2-methylpropyl)amino]-4-pyrimidinyl}-2-(tetrahydro-2H-pyran-4-yl)-1,3-thiazol-4-yl]phenyl}-2,6-difluorobenzenesulfonamide] has an IC50 [1, 4] of under 100 nM, an IC50 [1, 5] of at most 3.16 nM and an IC50 [2, 6] of under 100 nM. The IC50 [2, 7] was under 100 nM, the IC50 [3, 8] was under 100 nM and the IC50 [3, 9] was under 100 nM.
`CC(C)CNc1nccc(-c2sc(C(C)(C)C)nc2-c2cccc(NS(=O)(=O)c3c(F)cccc3F)c2Cl)n1` [Example 19, N-[2-Chloro-3-(2-(1,1-dimethylethyl)-5-{2-[(2-methylpropyl)amino]-4-pyrimidinyl}-1,3-thiazol-4-yl)phenyl]-2,6-difluorobenzenesulfonamide] was tested, and the IC50 [1, 4] was under 100 nM, the IC50 [1, 10] was 3.16 to 31.6 nM and the IC50 [2, 6] was under 100 nM. The IC50 [2, 7] was under 100 nM, the IC50 [3, 8] was under 100 nM and the IC50 [3, 9] was under 100 nM.
For `CC(C)CNc1nccc(-c2sc(N3CCOCC3)nc2-c2cccc(NS(=O)(=O)c3c(F)cccc3F)c2Cl)n1` [Example 20, N-{2-Chloro-3-[5-{2-[(2-methylpropyl)amino]-4-pyrimidinyl}-2-(4-morpholinyl)-1,3-thiazol-4-yl]phenyl}-2,6-difluorobenzenesulfonamide], the IC50 [1, 4] was under 100 nM, the IC50 [1, 5] was at most 3.16 nM and the IC50 [2, 6] was under 100 nM. For the same compound, the IC50 [2, 7] was under 100 nM, the IC50 [3, 8] was under 100 nM and the IC50 [3, 9] was under 100 nM.
Work on `Nc1nccc(-c2sc(N3CCOCC3)nc2-c2cccc(NS(=O)(=O)c3c(F)cccc3F)c2Cl)n1` [Example 21, N-{3-[5-(2-Amino-4-pyrimidinyl)-2-(4-morpholinyl)-1,3-thiazol-4-yl]-2-chlorophenyl}-2,6-difluorobenzenesulfonamide] yielded an IC50 [1, 4] of under 100 nM, an IC50 [1, 5] of at most 3.16 nM and an IC50 [2, 6] of 100 to 1000 nM. It also gave an IC50 [2, 7] of 100 to 1000 nM, an IC50 [3, 8] of 100 to 1000 nM and an IC50 [3, 9] of 100 to 1000 nM.

— patent US7994185B2, “Benzene sulfonamide thiazole and oxazole compounds” (Glaxo Smith Kline LLC, priority 2008, dated 2011)
